Among the data in ChEMBL document CHEMBL1137817, “Potential antitumor-promoting diterpenes from the cones of Pinus luchuensis” (J Nat Prod, 2002) are Activity and viability values, retold here.

Holding throughout (type): cell-based
The test system of series [1] is Raji. As to the kind of experiment: Inhibition of 12-O-tetradecanoylphorbol 13-acetate-induced Epstein-Barr virus early antigen activation in human Raji cells assessed as EA induction at 1000 mol ratio relative to TPA. Set-up: scale not given: the % may be the effect or the level left. To be noted: human gammaherpesvirus 4.
Series [2] concerns Raji. The series can be described thus: Inhibition of 12-O-tetradecanoylphorbol 13-acetate-induced Epstein-Barr virus early antigen activation in human Raji cells assessed as EA induction at 500 mol ratio relative to TPA. Set-up: scale not given: the % may be the effect or the level left. To be noted: human gammaherpesvirus 4.
A short description of series [3]: Cytotoxicity against human Raji cells assessed as cell viability at 1000 molar ratio after 48 hours relative to TPA. The conditions noted are these: read-out: Activity.
For series [4], the system named is Raji. The series can be described thus: Inhibition of 12-O-tetradecanoylphorbol 13-acetate-induced Epstein-Barr virus early antigen activation in human Raji cells assessed as EA induction at 100 mol ratio relative to TPA. Set-up: scale not given: the % may be the effect or the level left. The conditions noted are these: human gammaherpesvirus 4.
For series [5], the system named is Raji. As to the kind of experiment: Inhibition of 12-O-tetradecanoylphorbol 13-acetate-induced Epstein-Barr virus early antigen activation in human Raji cells assessed as EA induction at 10 mol ratio relative to TPA. Set-up: scale not given: the % may be the effect or the level left. To be noted: human gammaherpesvirus 4.

Regarding `CC1=C(/C=C/C(C)=C/C=C/C(C)=C/C=C/C=C(C)/C=C/C=C(C)/C=C/C2=C(C)CCCC2(C)C)C(C)(C)CCC1` [BETA CAROTENE], the Activity in series [1] is 9%; in series [2], 34%; in series [4] it was 82%; in series [5] it was 100%. Further, the viability at 48 h, 1000 molar ratio relative to TPA in series [3] was 90%.
On the same counts, the results for `C=C[C@]1(C)C=C2CC[C@@H]3[C@](C)(CCC[C@@]3(C)C(=O)O)[C@H]2CC1` [SANDARACOPIMARIC ACID] are 0%, 22.5%, 70.4%, 91.9% and 70%.
On the same counts, the results for `C=C/C(C)=C/C[C@H]1C(=C)CC[C@@H]2[C@]1(C)CCC[C@]2(C)C(=O)O` are 4.4%, 46.2%, 75.3%, 90.5% and 60%.
The corresponding values for `C=C1CC[C@@H]2[C@](C)(CCC[C@]2(C)C(=O)O)[C@H]1C/C=C(\C)C=O` are 0%, 31.4%, 68.5%, 91.4% and 70%.
With `CC(C)c1ccc2c(c1)CC[C@H]1[C@](C)(C(=O)O)CCC[C@]21C` [DEHYDROABIETIC ACID], the Activity amounted to 2.9% in series [1], 32.7% in series [2], 69.8% in series [4] and 97.9% in series [5]. The viability at 48 h, 1000 molar ratio relative to TPA in series [3] was found to be 70%.
The corresponding values for `C=C1CC[C@@H]2[C@](C)(CCC[C@]2(C)C(=O)O)[C@H]1C/C=C(\C)C(=O)O` are 5%, 47.1%, 74.4%, 93.4% and 60%.
